Our source for the Ki values is US9187425B2, “2,5-disubstituted arylsulfonamide CCR3 antagonists” (Axikin Pharmaceuticals, Inc., priority 2009, dated 2015).

This test has as its target T1, CCR3 (UniProt P51677).
T1 sequence (P51677 1-355): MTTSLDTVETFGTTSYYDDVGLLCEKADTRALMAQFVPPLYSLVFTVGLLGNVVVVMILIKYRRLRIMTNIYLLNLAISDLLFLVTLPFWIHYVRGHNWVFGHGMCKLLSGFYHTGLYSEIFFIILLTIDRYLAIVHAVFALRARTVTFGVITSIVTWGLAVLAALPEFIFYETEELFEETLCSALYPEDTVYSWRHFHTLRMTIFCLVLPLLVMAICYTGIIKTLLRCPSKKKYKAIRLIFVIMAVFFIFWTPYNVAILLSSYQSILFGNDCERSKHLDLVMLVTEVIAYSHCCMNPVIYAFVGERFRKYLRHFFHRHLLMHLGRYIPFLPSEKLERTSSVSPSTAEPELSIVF
In words: CCR3 Receptor Binding Assay ([125I]-labeled human eotaxin/CCL11 displacement on cells). The conditions noted are these: 0.1 nM [125I]-labeled human eotaxin/CCL11, 60 min at room temperature, 2×10^5 cells/well. The method, then:
Cells were washed once with PBS and resuspended in a binding buffer (25 mM HEPES pH 7.6, 5 mM MgCl2, 1 mM CaCl2, 0.5% BSA, 0.1% NaN3). […] of cell suspension (2×10^5 cells/well) and 0.1 nM [^125I]-labeled human eotaxin/CCL11 (2000 Ci/mmol specific activity) were mixed in a 96-well U-bottom polypropylene plate, and incubated for 60 min at room temperature for the binding reaction. The cell suspension was then transferred to a filtration plate (#MAFB, Millipore), and washed 3 times with the binding buffer containing 0.5 M NaCl, scintillant added, and the radioactivity was counted on a TopCount (Packard). For the determination of non-specific binding, the cell suspension and [^125I]-labeled human eotaxin/CCL11 were incubated in the presence of 500 nM of unlabeled human eotaxin/CCL11. See, Iino et al., “Molecular cloning and functional characterization of cynomolgus monkey (Macaca fascicularis) CC chemokine receptor, CCR3,” Cytokine 2002, 19, 276-286.
Biological results are summarized in Table 1, wherein A represents a value no greater than 50 nM, and B represents a value greater than 50 nM but no greater than 500 nM, C represents a value greater than 500 nM but no greater than 5 μM, and D represents a value greater than 5 μM.

`O=[N+]([O-])c1ccc(Sc2cc(Cl)cc(Cl)c2)c(S(=O)(=O)N2CCS(=O)(=O)CC2)c1` [Compound 30]: the Ki (in general, the equilibrium dissociation constant of an inhibitor or competing ligand from its target) is at most 50 nM.
The compound `N#Cc1ccc(Sc2cc(Cl)cc(Cl)c2)c(S(=O)(=O)N2CCOCC2)c1` [Compound 12] showed a Ki of at most 50 nM.
The figure for `CC1CN(S(=O)(=O)c2cc(C#N)ccc2Sc2cc(Cl)cc(Cl)c2)CC(C)N1` (stereo not drawn) [Compound 29] is at most 50 nM; for `O=[N+]([O-])c1ccc(Sc2cc(Cl)cc(Cl)c2)c(S(=O)(=O)N2CCSCC2)c1` [Compound 24] it is above 5000 nM.
Turning to `N#Cc1ccc(Sc2cc(Cl)cc(Cl)c2)c(S(=O)(=O)N2CCNC(=O)C2)c1` [Compound 9], the Ki is at most 50 nM.
In turn, `N#Cc1ccc(Sc2cc(Cl)cc(Cl)c2)c(S(=O)(=O)N2CCSCC2)c1` [Compound 13] registered a Ki of at most 50 nM.
Then `N#Cc1ccc(Sc2cc(C(F)(F)F)cc(C(F)(F)F)c2)c(S(=O)(=O)N2CCS(=O)(=O)CC2)c1` [Compound 20], with above 5000 nM; and `CC1CN(S(=O)(=O)c2cc(C#N)ccc2Sc2cc(Cl)cc(Cl)c2)CC(C)N1` (stereo not drawn) [Compound 28], with at most 50 nM.
In turn, `N#Cc1ccc(Sc2cc(C(F)(F)F)cc(C(F)(F)F)c2)c(S(=O)(=O)N2CCSCC2)c1` [Compound 19] had a Ki above 5000 nM.
`N#Cc1ccc(Sc2cc(Cl)cc(Cl)c2)c(S(=O)(=O)N2CCS(=O)(=O)CC2)c1` [Compound 14] yielded a Ki of at most 50 nM.
`Cc1cc(C)cc(Sc2ccc(C#N)cc2S(=O)(=O)N2CCS(=O)(=O)CC2)c1` [Compound 26] yielded a Ki above 5000 nM.
The figure for `Cc1cc(C)cc(Sc2ccc(C#N)cc2S(=O)(=O)N2CCS(=O)(=O)CC2)c1` [Compound 17] is at most 50 nM.
`CC1CN(S(=O)(=O)c2cc(C#N)ccc2Sc2cc(Cl)cc(Cl)c2)CCN1` (stereo not drawn) [Compound 27] showed a Ki of at most 50 nM.
The figure for `N#Cc1ccc(Sc2cc(Cl)cc(Cl)c2)c(S(=O)(=O)N2CCCCC2)c1` [Compound 1] is 50 to 500 nM; for `Cc1cc(C)cc(Sc2ccc(C#N)cc2S(=O)(=O)N2CCCCC2)c1` [Compound 4] it is at most 50 nM.
In turn, `Cc1cc(C)cc(Sc2ccc([N+](=O)[O-])cc2S(=O)(=O)N2CCSCC2)c1` [Compound 25] displayed an inhibitory constant (Ki) above 5000 nM.
Then `Cc1cc(C)cc(Sc2ccc(C#N)cc2S(=O)(=O)N2CCNC(=O)C2)c1` [Compound 10], with at most 50 nM; and `Cc1cc(C)cc(Sc2ccc(C#N)cc2S(=O)(=O)N2CCC(C)CC2)c1` [Compound 5], with above 5000 nM; and `N#Cc1ccc(Sc2cc(Cl)cc(Cl)c2)c(S(=O)(=O)N2CCC(F)CC2)c1` [Compound 7], with at most 50 nM.
Then `CC(C)N1CCN(S(=O)(=O)c2cc(C#N)ccc2Sc2cc(Cl)cc(Cl)c2)CC1=O` [Compound 31], with at most 50 nM.
Then `N#Cc1ccc(Sc2cc(Cl)cc(Cl)c2)c(S(=O)(=O)N2CCNC(=O)C2)c1` [Compound 11], with at most 50 nM; and `COC(=O)C1CN(S(=O)(=O)c2cc(C#N)ccc2Sc2cc(Cl)cc(Cl)c2)CCN1` (stereo not drawn) [Compound 32], with at most 50 nM.
`Cc1cc(C)cc(Sc2ccc(C#N)cc2S(=O)(=O)N2CCSCC2)c1` [Compound 16] registered a Ki above 5000 nM.
The figure for `N#Cc1ccc(Sc2cc(C(F)(F)F)cc(C(F)(F)F)c2)c(S(=O)(=O)N2CCOCC2)c1` [Compound 18] is 500 to 5000 nM; for `N#Cc1ccc(S(=O)(=O)c2cc(Cl)cc(Cl)c2)c(S(=O)(=O)N2CCCCC2)c1` [Compound 3] it is above 5000 nM; for `N#Cc1ccc([S+]([O-])c2cc(Cl)cc(Cl)c2)c(S(=O)(=O)N2CCCCC2)c1` (stereo not drawn) [Compound 2] it is above 5000 nM.
The figure for `N#Cc1ccc(Sc2cc(Cl)cc(Cl)c2)c(S(=O)(=O)N2CCSCC2)c1` [Compound 21] is 50 to 500 nM.
In turn, `CC1CCN(S(=O)(=O)c2cc(C#N)ccc2Sc2cc(Cl)cc(Cl)c2)CC1` [Compound 6] showed a Ki above 5000 nM.
Then `CC1CC(C)CN(S(=O)(=O)c2cc(C#N)ccc2Sc2cc(Cl)cc(Cl)c2)C1` (stereo not drawn) [Compound 8], with above 5000 nM; and `N#Cc1ccc(Sc2cc(Cl)cc(Cl)c2)c(S(=O)(=O)N2CCS(=O)(=O)CC2)c1` [Compound 23], with at most 50 nM.
